Measured values from patent publication US5681588A, “Delayed release microtablet of β-phenylpropiophenone derivatives” (priority 1993, dated 1997).
Counter-ions that a name gives are not always drawn.

Experiment: Release of other medicinal substances from the same preparation
Type: physicochemical
Conditions: in 1 hour

SMILES | release from the same preparation [%]
CN/C(=N/CCSCc1nc[nH]c1C)NC#N [cimetidine hydrochloride] | 90
CC(=O)Nc1ccc(O)cc1 [paracetamol] | 90
